Experimental data from article PMC11365428 (The Journal of Biological Chemistry, 2024).
No end group written: not given here.

Assays:
[1] = tested on: putative neuropeptide FF receptor (apNPFFR); test: IP1 accumulation assay, CHO-K1 cells transiently expressing putative neuropeptide FF receptor; type: cell-based, Aplysia californica; conditions: 10^-5 M compared with 10^-10 M (control); n = 3; no Gαq cotransfection
Procedure: To express putative Aplysia receptors transiently in CHO-K1 cells, the cDNAs were subcloned into the pcDNA3.1(+) or pcDNA3.1(+)-FLAG (for ELISA experiments only, see “Cell surface expression analysis by ELISA” section) expression vector. On the day before transfection, the CHO-K1 cells were passaged into 60 mm diameter tissue culture–treated dishes, and the transfection experiments were performed when the cells were grown to 70 to 90% confluence. CHO-K1 cells were transfected with the cDNA plasmid constructs using Turbofect Transfection reagent (Thermo Fisher Scientific, R0531), following the manufacturer’s instructions. In brief, 4 μg of the putative receptor plasmids [in pcDNA3.1(+) or pcDNA3.1(+)-FLAG] were mixed with 400 μl of Opti-MEM (Gibco, 11058021), followed by the addition of 15 μl of TurboFect Transfection reagent and incubated at room temperature for 15 min. The DNA/TurboFect mixture dropwise was then added to the dish, and the cells were incubated at 37 °C in a humidified incubator containing 5% CO2 overnight.
The next day, transfected cells were trypsinized and reseeded in an opaque white 96-well half-area (Corning, 3688) or 384-well tissue culture–treated plates (Corning, 3570) at a density of 20,000 cells/well in F-12K and 10% FBS and incubated at 37 °C in a humidified incubator containing 5% CO2 overnight. On the third day, the activation of the putative receptors was detected by monitoring intracellular IP1 concentration using an IP-One Gq kit (Cisbio, 62IPAPEB) in Tecan Spark. Except for using 0.5x reagent, all other procedures were performed following the manufacturer’s instructions. IP1 accumulation assay measures the accumulation of IP1, which is hydrolyzed from the second messenger, and inositol triphosphate. Inositol triphosphate is generated by the Gαq pathway when a GPCR is activated by an appropriate ligand.

apTKRPR-B = biological target: T1, apTKRPR-B (Aplysia californica, UniProt A0AAU7STS1); test: IP1 accumulation assay, CHO-K1 cells transiently expressing apTKRPR-B; type: cell-based; conditions: for IP1 response of apTKRPR-B in screening: 10^-5 M compared with 10^-10 M (control), no Gαq cotransfection
T1 sequence (A0AAU7STS1 1-447): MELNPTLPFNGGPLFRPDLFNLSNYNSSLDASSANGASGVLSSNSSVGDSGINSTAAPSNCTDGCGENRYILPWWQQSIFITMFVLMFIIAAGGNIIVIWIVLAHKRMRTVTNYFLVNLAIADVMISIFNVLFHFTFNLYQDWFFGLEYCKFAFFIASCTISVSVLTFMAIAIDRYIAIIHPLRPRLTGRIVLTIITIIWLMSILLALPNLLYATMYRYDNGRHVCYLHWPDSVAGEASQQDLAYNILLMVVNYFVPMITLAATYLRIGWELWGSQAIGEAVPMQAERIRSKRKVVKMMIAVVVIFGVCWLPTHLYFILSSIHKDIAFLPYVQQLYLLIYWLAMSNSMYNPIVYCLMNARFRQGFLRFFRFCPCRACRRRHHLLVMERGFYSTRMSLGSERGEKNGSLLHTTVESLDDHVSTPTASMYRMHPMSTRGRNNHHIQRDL
Procedure: (§1) To express putative Aplysia receptors transiently in CHO-K1 cells, the cDNAs were subcloned into the pcDNA3.1(+) or pcDNA3.1(+)-FLAG (for ELISA experiments only, see “Cell surface expression analysis by ELISA” section) expression vector. On the day before transfection, the CHO-K1 cells were passaged into 60 mm diameter tissue culture–treated dishes, and the transfection experiments were performed when the cells were grown to 70 to 90% confluence. CHO-K1 cells were transfected with the cDNA plasmid constructs using Turbofect Transfection reagent (Thermo Fisher Scientific, R0531), following the manufacturer’s instructions. […] The DNA/TurboFect mixture dropwise was then added to the dish, and the cells were incubated at 37 °C in a humidified incubator containing 5% CO2 overnight.
(§2) On the third day, the activation of the putative receptors was detected by monitoring intracellular IP1 concentration using an IP-One Gq kit (Cisbio, 62IPAPEB) in Tecan Spark. Except for using 0.5x reagent, all other procedures were performed following the manufacturer’s instructions. IP1 accumulation assay measures the accumulation of IP1, which is hydrolyzed from the second messenger, and inositol triphosphate. Inositol triphosphate is generated by the Gαq pathway when a GPCR is activated by an appropriate ligand.

apTKRPR-A = biological target: T2, apTKRPR-A (Aplysia californica, UniProt A0AAU7SSZ1); test: IP1 accumulation assay, CHO-K1 cells transiently expressing apTKRPR-A; type: cell-based; conditions: for IP1 response of apTKRPR-A in screening: 10^-5 M compared with 10^-10 M (control), no Gαq cotransfection
T2 sequence (A0AAU7SSZ1 1-398): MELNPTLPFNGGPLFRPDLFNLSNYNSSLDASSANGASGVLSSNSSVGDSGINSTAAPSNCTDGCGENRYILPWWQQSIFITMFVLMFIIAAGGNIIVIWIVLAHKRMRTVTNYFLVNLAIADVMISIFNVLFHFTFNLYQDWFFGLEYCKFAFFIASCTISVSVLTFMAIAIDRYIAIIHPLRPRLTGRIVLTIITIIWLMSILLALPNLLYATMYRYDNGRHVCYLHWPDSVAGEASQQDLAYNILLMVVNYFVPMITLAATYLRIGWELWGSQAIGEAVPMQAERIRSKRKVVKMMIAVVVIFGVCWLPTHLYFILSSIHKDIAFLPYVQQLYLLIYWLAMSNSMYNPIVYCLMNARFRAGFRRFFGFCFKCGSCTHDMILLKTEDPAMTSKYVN
Procedure: as §1, §2

[2] = co-transfected with Gαq (Gα16), 10^-5 M compared with 10^-10 M, n = 3

Substance | IP1 response of putative apNPFFR in screening [1] | IP1 response of apTKRPR-B in screening (apTKRPR-B; n = 3) | IP1 response of apTKRPR-B in screening with Gαq cotransfection (apTKRPR-B; [2]) | IP1 response of apTKRPR-A in screening (apTKRPR-A; n = 3) | IP1 response of apTKRPR-A in screening with Gαq cotransfection (apTKRPR-A; [2]) | EC50 (apTKRPR-B; log10 of EC50 in M, negative, IP1 accumulation, CHO-K1, mean ± SD of at least three independent experiments (apTKRP-1 n = 9; apTKRP-2a n = 11; apTKRP-2b n = 19; analogs, apTKRP-2b-OH n = 4), read-out: apTKRPR-B log[EC50] (converted)) [nM] | EC50 (apTKRPR-A; log10 of EC50 in M, negative, IP1 accumulation, CHO-K1, mean ± SD of at least three independent experiments (apTKRP-1 n = 9; apTKRP-2a n = 11; apTKRP-2b n = 19; analogs, apTKRP-2b-OH n = 4), read-out: apTKRPR-A log[EC50] (converted)) [nM]
FMPGLESLLLAKYYQDAKW [apTKRPG-DP] | did not respond | did not activate | did not activate | did not activate | did not activate | – | –
H-QPHLGFHGSR-NH2 [apTKRP-2a] | did not respond | responded | – | responded | – | 12.9 | 107
